In this experiment the target is T1, human kinase Mps-1 (Homo sapiens, UniProt P33981).
T1 construct: N-terminally GST-tagged human full length recombinant Mps-1 kinase; purchased Invitrogen, Karslruhe, Germany PV4071
T1 sequence (P33981 1-857): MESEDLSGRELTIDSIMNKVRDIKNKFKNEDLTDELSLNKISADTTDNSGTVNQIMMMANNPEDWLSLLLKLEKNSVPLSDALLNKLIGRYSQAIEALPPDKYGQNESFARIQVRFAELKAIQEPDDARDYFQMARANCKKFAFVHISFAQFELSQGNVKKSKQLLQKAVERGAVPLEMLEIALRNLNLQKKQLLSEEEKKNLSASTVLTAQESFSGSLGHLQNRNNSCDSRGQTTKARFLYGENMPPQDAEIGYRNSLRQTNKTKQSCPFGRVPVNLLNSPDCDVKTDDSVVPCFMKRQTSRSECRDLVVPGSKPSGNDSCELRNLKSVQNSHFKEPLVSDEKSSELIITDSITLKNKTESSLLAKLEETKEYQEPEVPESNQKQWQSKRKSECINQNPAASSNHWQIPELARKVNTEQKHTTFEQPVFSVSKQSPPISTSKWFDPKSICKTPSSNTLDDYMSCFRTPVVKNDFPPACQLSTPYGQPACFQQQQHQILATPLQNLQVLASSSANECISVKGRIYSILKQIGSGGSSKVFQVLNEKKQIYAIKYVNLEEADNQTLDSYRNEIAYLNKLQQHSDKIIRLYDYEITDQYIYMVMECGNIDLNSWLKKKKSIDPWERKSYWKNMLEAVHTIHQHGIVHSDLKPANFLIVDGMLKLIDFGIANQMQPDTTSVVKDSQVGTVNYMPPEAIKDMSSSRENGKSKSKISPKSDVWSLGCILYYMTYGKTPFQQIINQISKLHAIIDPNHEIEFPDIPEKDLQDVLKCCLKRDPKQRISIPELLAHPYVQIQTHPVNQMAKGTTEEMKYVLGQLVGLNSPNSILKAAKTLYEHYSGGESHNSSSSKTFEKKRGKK
In words: Mps-1 kinase assay (HTRF). It is filed as biochemical. The note with it: lowATP; mean; read-out: Mps1 lowATP mean IC50. In a few lines:
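HTRF readout: EDTA-stopped reactions incubated 1 h with europium anti-phospho(Ser/Thr) antibody and streptavidin-XLent, emission ratio 665/620 nm after 350 nm excitation. Kinase step: compound pre-bound 15 min to ~1 nM GST-Mps-1, then 60 min at 22 °C with ATP and biotin-peptide substrate; inhibition scaled between no-inhibitor (0%) and no-enzyme (100%) controls.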
On the technique in general: TR-FRET usually uses a lanthanide donor and a delayed reading to cut background.
On to `N#Cc1ccc2c(c1)nc(NCc1cccnc1)c1ncc(-c3ccc(C(=O)NC4CC4)c(Cl)c3)n12` [Example 2-245, 2-chloro-4-{7-cyano-4-[(pyridin-3-ylmethyl)amino]imidazo[1,2-a]quinoxalin-1-yl}-N-cyclopropylbenzamide], for which the IC50 stood at 1120 nM.
The value for `N#Cc1ccc2c(c1)nc(NCc1ccncc1)c1ncc(-c3ccc(C(=O)NC4CC4)c(Cl)c3)n12` [Example 2-246, 2-chloro-4-{7-cyano-4-[(pyridin-4-ylmethyl)amino]imidazo[1,2-a]quinoxalin-1-yl}-N-cyclopropylbenzamide] was 1300 nM; that for `CC(C)CNc1nc2cc(C#N)ccc2n2c(-c3ccc(C(=O)NC4CC4)c(Cl)c3)cnc12` [Example 2-247, 2-chloro-4-{7-cyano-4-[(2-methylpropyl)amino]imidazo[1,2-a]quinoxalin-1-yl}-N-cyclopropylbenzamide] was 339 nM; that for `N#Cc1ccc2c(c1)nc(NCCC(N)=O)c1ncc(-c3ccc(C(=O)NC4CC4)c(Cl)c3)n12` [Example 2-248, 4-{4-[(3-amino-3-oxopropyl)amino]-7-cyanoimidazo[1,2-a]quinoxalin-1-yl}-2-chloro-N-cyclopropylbenzamide] was 5830 nM.
With `COCCCNc1nc2cc(C#N)ccc2n2c(-c3ccc(C(=O)NC4CC4)c(Cl)c3)cnc12` [Example 2-249, 2-chloro-4-{7-cyano-4-[(3-methoxypropyl)amino]imidazo[1,2-a]quinoxalin-1-yl}-N-cyclopropylbenzamide], the IC50 is 2400 nM.
The figure for `CC(C)(C)OC(=O)NCCCNc1nc2cc(C#N)ccc2n2c(-c3ccc(C(=O)NC4CC4)c(Cl)c3)cnc12` [Example 2-250, tert-butyl [3-({1-[3-chloro-4-(cyclopropylcarbamoyl)phenyl]-7-cyanoimidazo[1,2-a]quinoxalin-4-yl}amino)propyl]carbamate] is 1460 nM; for `Cn1ccc(CNc2nc3cc(C#N)ccc3n3c(-c4ccc(C(=O)NC5CC5)c(Cl)c4)cnc23)n1` [Example 2-251, 2-chloro-4-(7-cyano-4-{[(1-methyl-1H-pyrazol-3-yl)methyl]amino}imidazo[1,2-a]quinoxalin-1-yl)-N-cyclopropylbenzamide] it is 2540 nM; for `Cn1nccc1CNc1nc2cc(C#N)ccc2n2c(-c3ccc(C(=O)NC4CC4)c(Cl)c3)cnc12` [Example 2-252, 2-chloro-4-(7-cyano-4-{[(1-methyl-1H-pyrazol-5-yl)methyl]amino}imidazo[1,2-a]quinoxalin-1-yl)-N-cyclopropylbenzamide] it is 852 nM.
`Cn1cc(CNc2nc3cc(C#N)ccc3n3c(-c4ccc(C(=O)NC5CC5)c(Cl)c4)cnc23)cn1` [Example 2-253, 2-chloro-4-(7-cyano-4-{[(1-methyl-1H-pyrazol-4-yl)methyl]amino}imidazo[1,2-a]quinoxalin-1-yl)-N-cyclopropylbenzamide]: the 50% inhibitory concentration (IC50) stood at 1220 nM.
Consider `N#Cc1ccc2c(c1)nc(NCC(O)CO)c1ncc(-c3ccc(C(=O)NC4CC4)c(Cl)c3)n12` (centres unmarked) [Example 2-254, 2-chloro-4-{7-cyano-4-[(2,3-dihydroxypropyl)amino]imidazo[1,2-a]quinoxalin-1-yl}-N-cyclopropylbenzamide], for which the IC50 stood at 5530 nM.
As for `CC(C)CNc1nc2ccccc2n2c(-c3ccc(C(=O)Nc4cc[nH]n4)cc3)cnc12` [Example 3-1, 4-{4-[(2-methylpropyl)amino]imidazo[1,2-a]quinoxalin-1-yl}-N-(1H-pyrazol-3-yl)benzamide], the IC50 worked out at 3950 nM.
The value for `CCCNC(=O)c1ccc(-c2cnc3c(NCC(C)C)nc4ccccc4n23)cc1` [Example 3-2, 4-{4-[(2-methylpropyl)amino]imidazo[1,2-a]quinoxalin-1-yl}-N-propylbenzamide] was 369 nM.
The figure for `CCN(CC)C(=O)c1ccc(-c2cnc3c(NCC(C)C)nc4ccccc4n23)cc1` [Example 3-3, N,N-diethyl-4-{4-[(2-methylpropyl)amino]imidazo[1,2-a]quinoxalin-1-yl}benzamide] is 19700 nM; for `CC(C)CNc1nc2ccccc2n2c(-c3ccc(C(=O)NCCO)cc3)cnc12` [Example 3-4, N-(2-hydroxyethyl)-4-{4-[(2-methylpropyl)amino]imidazo[1,2-a]quinoxalin-1-yl}benzamide] it is 1790 nM; for `CC(C)CNc1nc2ccccc2n2c(-c3ccc(C(=O)NCCCN4CCCC4=O)cc3)cnc12` [Example 3-5, 4-{4-[(2-methylpropyl)amino]imidazo[1,2-a]quinoxalin-1-yl}-N-[3-(2-oxopyrrolidin-1-yl)propyl]benzamide] it is 15300 nM.
Turning to `CC(C)CNc1nc2ccccc2n2c(-c3ccc(C(=O)NC4CCN(Cc5ccccc5)CC4)cc3)cnc12` [Example 3-7, N-(1-benzylpiperidin-4-yl)-4-{4-[(2-methylpropyl)amino]imidazo[1,2-a]quinoxalin-1-yl}benzamide], the IC50 was 15800 nM.
The value for `CCNC(=O)c1ccc(-c2cnc3c(NCC(C)C)nc4ccccc4n23)cc1` [Example 3-8, N-ethyl-4-{4-[(2-methylpropyl)amino]imidazo[1,2-a]quinoxalin-1-yl}benzamide] was 134 nM; that for `CC(C)CNc1nc2ccccc2n2c(-c3ccc(C(=O)Nc4ccc(S(N)(=O)=O)cc4)cc3)cnc12` [Example 3-9, 4-{4-[(2-methylpropyl)amino]imidazo[1,2-a]quinoxalin-1-yl}-N-(4-sulfamoylphenyl)benzamide] was 6590 nM.
Regarding `CC(C)CNc1nc2ccccc2n2c(-c3ccc(C(=O)Nc4cccc(C(N)=O)c4)cc3)cnc12` [Example 3-10, N-(3-carbamoylphenyl)-4-{4-[(2-methylpropyl)amino]imidazo[1,2-a]quinoxalin-1-yl}benzamide], the concentration for half-maximal inhibition (IC50) came to 865 nM.
The figure for `CC(C)CNc1nc2ccccc2n2c(-c3ccc(C(=O)Nc4ccccc4C(N)=O)cc3)cnc12` [Example 3-11, N-(2-carbamoylphenyl)-4-{4-[(2-methylpropyl)amino]imidazo[1,2-a]quinoxalin-1-yl}benzamide] is 19400 nM.
The value for `CC(C)CNc1nc2ccccc2n2c(-c3ccc(C(=O)NCC(N)=O)cc3)cnc12` [Example 3-12, N-(2-amino-2-oxoethyl)-4-{4-[(2-methylpropyl)amino]imidazo[1,2-a]quinoxalin-1-yl}benzamide] was 1510 nM; that for `C#CCNC(=O)c1ccc(-c2cnc3c(NCC(C)C)nc4ccccc4n23)cc1` [Example 3-13, 4-{4-[(2-methylpropyl)amino]imidazo[1,2-a]quinoxalin-1-yl}-N-(prop-2-yn-1-yl)benzamide] was 41.2 nM; that for `CC(=O)Nc1cccc(NC(=O)c2ccc(-c3cnc4c(NCC(C)C)nc5ccccc5n34)cc2)c1` [Example 3-14, N-[3-(acetylamino)phenyl]-4-{4-[(2-methylpropyl)amino]imidazo[1,2-a]quinoxalin-1-yl}benzamide] was 624 nM.
The figure for `CC(C)CNc1nc2ccccc2n2c(-c3ccc(C(=O)NC(C)CO)cc3)cnc12` (centres unmarked) [Example 3-15, N-(1-hydroxypropan-2-yl)-4-{4-[(2-methylpropyl)amino]imidazo[1,2-a]quinoxalin-1-yl}benzamide] is 1090 nM; for `CC(C)CNc1nc2ccccc2n2c(-c3ccc(C(=O)NCCc4ccncc4)cc3)cnc12` [Example 3-16, 4-{4-[(2-methylpropyl)amino]imidazo[1,2-a]quinoxalin-1-yl}-N-[2-(pyridin-4-yl)ethyl]benzamide] it is 5870 nM; for `CC(C)CNc1nc2ccccc2n2c(-c3ccc(C(=O)NCCC(N)=O)cc3)cnc12` [Example 3-17, N-(3-amino-3-oxopropyl)-4-{4-[(2-methylpropyl)amino]imidazo[1,2-a]quinoxalin-1-yl}benzamide] it is 7720 nM.
Regarding `CC(C)CNc1nc2ccccc2n2c(-c3ccc(C(=O)NCCN4CCNC4=O)cc3)cnc12` [Example 3-18, 4-{4-[(2-methylpropyl)amino]imidazo[1,2-a]quinoxalin-1-yl}-N-[2-(2-oxoimidazolidin-1-yl)ethyl]benzamide], the IC50 turned out to be 11900 nM.
The value for `CNC(=O)CNC(=O)c1ccc(-c2cnc3c(NCC(C)C)nc4ccccc4n23)cc1` [Example 3-19, N-[2-(methylamino)-2-oxoethyl]-4-{4-[(2-methylpropyl)amino]imidazo[1,2-a]quinoxalin-1-yl}benzamide] was 11600 nM; that for `CC(C)CNc1nc2ccccc2n2c(-c3ccc(C(=O)NCCc4cccnc4)cc3)cnc12` [Example 3-20, 4-{4-[(2-methylpropyl)amino]imidazo[1,2-a]quinoxalin-1-yl}-N-[2-(pyridin-3-yl)ethyl]benzamide] was 4480 nM.

Broadly, the IC50 is the concentration at which inhibition is half-maximal.

(Values after US8729082B2, “Substituted imidazoquinoxalines” (Bayer Intellectual Property GmbH, priority 2009, dated 2014).)
